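How tested: cells in 96-well plates exposed to compound for 48 hours at five concentrations. At the GI50, growth is halved.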 Active and inactive are the calls of the source. No stated cut-off is given here; in the data, active = GI50 up to about 1.1 µM and inactive = higher.
Experiments:
Experiment in all cases: inhibition of tumour cell growth, NCI panel, 48 h
PC-3 = test system: PC-3
Hs-578T = test system: Hs-578T
HCC 2998 = test system: HCC 2998
SF-268 = test system: SF-268
LOX IMVI = test system: LOX IMVI
UO-31 = test system: UO-31
COLO 205 = test system: COLO 205
HOP-62 = test system: HOP-62
RPMI-8226 = test system: RPMI-8226
OVCAR-8 = test system: OVCAR-8
SF-539 = test system: SF-539
MOLT-4 = test system: MOLT-4
OVCAR-3 = test system: OVCAR-3
M14 = test system: M14
SK-MEL-28 = test system: SK-MEL-28
MDA-MB-231 = test system: MDA-MB-231
RXF 393 = test system: RXF 393
A498 = test system: A498
MDA-N = test system: MDA-N

Measured: GI50

COC1=CC(=O)O/C1=C(\OC)C1OC1c1ccccc1 (configuration not stated)
inactive: PC-3 > 100 µM | Hs-578T > 100 µM | HCC 2998 > 100 µM | SF-268 > 100 µM | LOX IMVI > 100 µM | UO-31 > 100 µM | COLO 205 > 100 µM | HOP-62 > 100 µM | RPMI-8226 > 100 µM | OVCAR-8 > 100 µM | SF-539 > 100 µM | MOLT-4 53.7 µM | OVCAR-3 > 100 µM | M14 > 100 µM | SK-MEL-28 > 100 µM | MDA-MB-231 74.3 µM | RXF 393 > 100 µM | A498 > 100 µM

N#C[C@H]1Nc2ccccc2[C@@H](O)C1O (some centres not stated)
inactive: PC-3 > 100 µM | Hs-578T > 100 µM | HCC 2998 > 100 µM | SF-268 > 100 µM | LOX IMVI > 100 µM | COLO 205 > 100 µM | HOP-62 > 100 µM | RPMI-8226 > 100 µM | OVCAR-8 > 100 µM | SF-539 > 100 µM | MOLT-4 > 100 µM | OVCAR-3 > 100 µM | M14 > 100 µM | SK-MEL-28 > 100 µM | MDA-N > 100 µM | MDA-MB-231 > 100 µM | RXF 393 > 100 µM

COc1nc(C(=O)NNC(=O)c2nc(OC)c3ccccc3c2-c2ccccc2)c(-c2ccccc2)c2ccccc12
inactive: PC-3 > 100 µM | Hs-578T > 100 µM | HCC 2998 > 100 µM | SF-268 > 100 µM | UO-31 > 100 µM | COLO 205 > 100 µM | HOP-62 > 100 µM | RPMI-8226 > 100 µM | OVCAR-8 > 100 µM | MOLT-4 > 100 µM | OVCAR-3 > 100 µM | M14 > 100 µM | SK-MEL-28 > 100 µM | MDA-MB-231 > 100 µM | RXF 393 > 100 µM | A498 > 100 µM

O=[N+]([O-])c1ccc(Cl)cc1N/N=C/c1cccc2cccnc12
inactive: PC-3 > 100 µM | Hs-578T 30.8 µM | HCC 2998 > 100 µM | SF-268 > 100 µM | UO-31 33.1 µM | COLO 205 > 100 µM | HOP-62 > 100 µM | RPMI-8226 20.3 µM | OVCAR-8 48.2 µM | SF-539 95.1 µM | MOLT-4 39.7 µM | OVCAR-3 > 100 µM | M14 > 100 µM | SK-MEL-28 > 100 µM | MDA-N > 100 µM | MDA-MB-231 > 100 µM | RXF 393 > 100 µM

C/C(=C\Cc1ccc(F)cc1)CCCCCC/C(C)=C/Cc1ccc(F)cc1
inactive: PC-3 15.8 µM | Hs-578T 30.8 µM | SF-268 19.5 µM | LOX IMVI 3.91 µM | UO-31 10.7 µM | COLO 205 16.4 µM | HOP-62 10.5 µM | OVCAR-8 14.4 µM | SF-539 16.7 µM | MOLT-4 17.7 µM | OVCAR-3 22.9 µM | M14 17.4 µM | MDA-N 18.5 µM | MDA-MB-231 17.9 µM | RXF 393 20.7 µM

C[C@@H]1CC(=O)C[C@@H]2CC[C@H]3[C@@H]4CC[C@H](OC(=O)c5cccc6cc7ccccc7nc56)[C@H]4CC[C@@H]3[C@H]21
inactive: PC-3 12.1 µM | Hs-578T 21.6 µM | SF-268 6.4 µM | LOX IMVI 15.6 µM | UO-31 16.9 µM | COLO 205 22.2 µM | HOP-62 22.8 µM | OVCAR-8 16 µM | SF-539 16.7 µM | MOLT-4 3.48 µM | OVCAR-3 15.2 µM | M14 15.5 µM | SK-MEL-28 28.6 µM | MDA-N 13.5 µM | MDA-MB-231 15.9 µM | RXF 393 18.1 µM

CCOC(=O)Cc1c(C)c2ccc(OC(C)=O)c(OC(C)=O)c2oc1=O
inactive: PC-3 23.3 µM | Hs-578T 32.4 µM | SF-268 19.6 µM | LOX IMVI 25.3 µM | UO-31 13.9 µM | COLO 205 40 µM | HOP-62 40.6 µM | RPMI-8226 18.3 µM | OVCAR-8 18.6 µM | MOLT-4 23.6 µM | OVCAR-3 20.1 µM | M14 17.9 µM | SK-MEL-28 21.3 µM | MDA-N > 100 µM | MDA-MB-231 37.1 µM | A498 44.1 µM

CN(N)c1cc(=O)[nH]c(=O)[nH]1
inactive: PC-3 > 100 µM | Hs-578T 51.2 µM | HCC 2998 > 100 µM | SF-268 > 100 µM | LOX IMVI > 100 µM | HOP-62 > 100 µM | RPMI-8226 > 100 µM | OVCAR-8 > 100 µM | SF-539 > 100 µM | MOLT-4 > 100 µM | OVCAR-3 > 100 µM | SK-MEL-28 > 100 µM | MDA-N > 100 µM | MDA-MB-231 > 100 µM | A498 > 100 µM

C=C(C)C(=O)O[C@H]1CC2=CC(CC(C)=C[C@H]3OC(=O)C(=C)C13)OC2=O (some centres not stated)
inactive: PC-3 23 µM | Hs-578T 99.1 µM | HCC 2998 35 µM | SF-268 20.6 µM | LOX IMVI 21 µM | UO-31 > 10 µM | COLO 205 14.5 µM | RPMI-8226 2.93 µM | OVCAR-8 35.8 µM | SF-539 29.7 µM | MOLT-4 19.8 µM | OVCAR-3 24.7 µM | M14 29.4 µM | SK-MEL-28 14.1 µM | MDA-N 24.4 µM | MDA-MB-231 25.2 µM | A498 35.8 µM

COc1ccc2c(c1O)[C@@]13CCCC=C1[C@@H](C2)[N+](C)(C)CC3
inactive: PC-3 > 100 µM | Hs-578T 77.3 µM | HCC 2998 > 100 µM | SF-268 > 100 µM | LOX IMVI > 100 µM | UO-31 > 100 µM | COLO 205 43.6 µM | HOP-62 > 100 µM | OVCAR-8 > 100 µM | OVCAR-3 37.2 µM | M14 > 100 µM | SK-MEL-28 > 100 µM | MDA-N > 100 µM | MDA-MB-231 > 100 µM | RXF 393 > 100 µM

Cc1c(NC(=S)N/N=C\C(=N/NC(=S)Nc2c(C)n(C)n(-c3ccccc3)c2=O)c2ccccc2)c(=O)n(-c2ccccc2)n1C
inactive: PC-3 > 100 µM | Hs-578T > 100 µM | HCC 2998 > 100 µM | SF-268 > 100 µM | UO-31 > 100 µM | COLO 205 > 100 µM | HOP-62 > 100 µM | SF-539 > 100 µM | MOLT-4 > 100 µM | OVCAR-3 > 100 µM | M14 > 100 µM | MDA-MB-231 > 100 µM | RXF 393 > 100 µM | A498 > 100 µM

C=CCN(C(=O)OC(C)(C)C)C1=CC2C(C)=CN(S(=O)(=O)c3ccccc3)C2C(OCc2ccccc2)=C1 (configuration not stated)
inactive: PC-3 > 100 µM | Hs-578T > 100 µM | HCC 2998 > 100 µM | LOX IMVI > 100 µM | UO-31 > 100 µM | COLO 205 > 100 µM | HOP-62 > 100 µM | RPMI-8226 > 100 µM | OVCAR-8 > 100 µM | MOLT-4 > 100 µM | OVCAR-3 > 100 µM | M14 > 100 µM | SK-MEL-28 > 100 µM | MDA-N > 100 µM | MDA-MB-231 > 100 µM | RXF 393 36.1 µM

— ChEMBL document CHEMBL1201862, “PubChem BioAssay data set” (2004)
